In BigSolDB 2.1:

C[N+](C)(C)CC(=O)[O-]
Conditions | solubility (mole fraction)
in ethanol, 282.95 K | 0.0264
in ethanol, 288.15 K | 0.0298
in ethanol, 293.65 K | 0.0336
in ethanol, 298.45 K | 0.0372
in ethanol, 303.05 K | 0.041
in isopropanol, 283.45 K | 0.00458
in isopropanol, 288.65 K | 0.0054
in isopropanol, 293.15 K | 0.00622
in isopropanol, 298.45 K | 0.0071
in isopropanol, 303.35 K | 0.00823
in methanol, 283.15 K | 0.117
in methanol, 288.15 K | 0.121
in methanol, 293.55 K | 0.126
in methanol, 298.25 K | 0.131
in methanol, 303.2 K | 0.136
in n-butanol, 283.45 K | 0.00812
in n-butanol, 288.7 K | 0.00964
in n-butanol, 293.05 K | 0.0109
in n-butanol, 298.35 K | 0.0125
in n-butanol, 302.9 K | 0.0142
in n-propanol, 282.85 K | 0.0134
in n-propanol, 288.15 K | 0.0154
in n-propanol, 293.55 K | 0.0177
in n-propanol, 298.23 K | 0.02
in n-propanol, 303.45 K | 0.0225
in water, 283.15 K | 0.184
in water, 288.25 K | 0.189
in water, 293.2 K | 0.194
in water, 298.35 K | 0.2
in water, 303.25 K | 0.206
